This is an account of results in patent publication US20240261296A1, “THERAPEUTIC MODALITIES FOR INHIBITING PANCREATIC BETA CELL IMPAIRMENT AND TREATING DIABETES” (Hadasit Medical Research Serices & Development Ltd., priority 2021, published 2024).

The subject of experiment [1] is MIN6 cells. Briefly: rescue of MIN6 cells from palmitate-induced apoptosis (cleaved caspase 3 western blot; FACS SubG1). The experiment is classed as cell-based, murine. The following applies: palmitic acid 0.3 mM, 48 hours; compared to L-798106. On the procedure:
(§1) Islet and cell culture: The pancreatic β-cell line MIN6, which is a clonal murine insulin-secreting line, was cultured in DMEM (Biological Industries, Beit Haemek, Israel) supplemented with 11 mM Glucose, 2 mM glutamine, 15% heat-inactivated fetal calf serum (FCS), 100 U/ml penicillin, 100 µg/ml streptomycin and 61 μM β-mercaptoethanol. Human islets were obtained from the European Consortium for Islet Transplantation (ECIT) at the San Raffaele Hospital and from the Niguarda Hospital, (Milan, Italy) and cultured in CMRL-1066 media (Biological Industries, Beit HaEmek, Israel) supplemented with 10% FCS, 5.5 mM glucose, 2 mM L-Glutamine, 100 U/ml penicillin, 100 μg/ml streptomycin and 150 μg/ml gentamycin. Palmitate was added to 1% FCS and 0.5% defatted BSA (Roche, Germany).
Western blotting: Cells were lyzed in Laemmli protein sample buffer, separated on SDS-polyacrylamide gel, and transferred to […] nitrocellulose membranes (Schleicher and Schuell, Dassel, Germany). After blocking in 5% dried skimmed milk, the membranes were first incubated with the appropriate antibodies against: cleaved caspase-3 (Asp175) (Cell Signaling Technology Danvers, MA) and α-tubulin (Sigma-Aldrich.) and then with horseradish peroxidase conjugated anti-rabbit or anti-mouse IgG, followed by analysis with an enhanced chemiluminescence detection kit (Biological Industries, Israel).
The remaining compounds were screened for the ability to rescue β-cells from palmitate-induced apoptosis as compared to the commercial EP3 antagonist L-798106 by measuring the levels of the cleaved caspase 3 apoptotic marker, using Western Blot analysis (FIG. 1). […] Cell extracts were analyzed by western blotting for the presence of cleaved caspase 3 as compared to α-Tubulin.
The ability of the compounds to rescue β-cells from apoptosis was also evaluated using FACS analysis and measuring the SubG1 population (FIG. 2). […] Collected cells were analyzed by FACS and the SubG1 fractions (representing apoptotic cell products or components were compared. The average of 4-6 independent experiments is presented in FIG. 2.

For experiment [2], the system named is human islet cells. The experiment can be described thus: Caspase-Glo 3/7 assay in palmitic acid-treated human islets. The experiment is classed as cell-based. The arrangement: rescuing human islet cells from apoptosis, compared with L-798106 / inhibiting or reversing palmitate-induced apoptosis in pancreatic islets of both human donors / inhibition of palmitate-induced apoptosis in human islets, donor 1: dose or concentration left out as unconfirmed. Particulars: for rescuing human islet cells from apoptosis, compared with L-798106: two human donors. The procedure:
as §1
(§2) Next, the ability of the compounds to rescue human islet cells from palmitate-induced apoptosis was determined. To this end, the Caspase-Glo 3/7 assay reagent (Promega) was used for caspase 3/7 detection in palmitic acid-treated cells. The reagent provides a proluminescent caspase-3/7 substrate, which contains the tetrapeptide sequence DEVD, in combination with luciferase and a cell-lysing agent. The addition of the reagent directly to the wells results in cell lysis, followed by caspase cleavage of the DEVD substrate, and the generation of luminescence.
Accordingly, human islets from two donors were exposed to the various compounds or to L-798106 for 48 h in the presence of palmitic acid, and the bioluminescence was measured as compared to control cells. FIGS. 3A-3B show the results of the treatment with […] of the compounds in two human donors (FIG. 3A—donor 1, FIG. 3B—donor 2). PA: Palmitate; L: L-798106; RLU: Relative Light Units. The results are average of triplicates or quadruplicates ±SEM (except in islets from L-798106 treated donor 2, representing duplicates).
Next, various concentrations of the compounds were tested in human pancreatic islet cells. Cells obtained from the first healthy donor (donor 1) were incubated in the presence or absence of PA with C13, C5 or L-798106 (L) at concentrations of 5, 2.5 and 0.5 μM. Caspase 3/7 enzymatic activity was measured as described above. The enzymatic activity is presented in FIG. 5A for 5 μM, FIG. 5B for 2.5 μM and FIG. 5C for 0.5 μM as relative light units (RLU/μg protein) and the graphs represent the average of n=3-4.

For experiment [3], the system named is MIN6 cells. The experiment can be described thus: Caspase 3/7 enzymatic activity in palmitic acid-treated MIN6 cells. Format: cell-based, murine. Particulars: 250 nM, 24 h. The procedure: as §2
Following the initial screening results, compounds C13 and C5 were tested at different doses for their ability to reduce palmitate-induced apoptosis. To this end, MIN6 cells were exposed to 250 nM of the tested compounds in the presence of palmitic acid (PA) for 24 h, or to PA alone. Caspase 3/7 enzymatic activity was measured as described in Example 3, and the results, presented in FIG. 4 represent the average ±SEM of triplicates or quadruplicates.

With `CC[C@H](C)c1ccc(S(=O)(=O)Nc2ccccc2C(=O)N2C[C@@H](C)O[C@@H](C)C2)cc1` [Compound C5, 4-((S)-sec-butyl)-N-(2-((2S,6R)-2,6-dimethylmorpholine-4-carbonyl)phenyl)benzenesulfonamide], the “rescue of β-cells from palmitate-induced apoptosis (cleaved caspase 3; SubG1 population)” value in experiment [1] is “exceptionally high efficacy”. For the same molecule, in experiment [2] (donor 1, 5, 2.5 and 0.5 μM), the “inhibition of palmitate-induced apoptosis in human islets, compared with L-798106” value was “to a greater extent than L-798106”. The “rescuing human islet cells from apoptosis, compared with L-798106” value in experiment [2] (palmitic acid, 48 h) is listed as “to a greater extent than the EP3 antagonist L-798106”. The “palmitate-induced apoptosis (caspase 3/7 activity)” value in experiment [3] is “significantly reduced”.
`CC[C@@H]1CC[C@H](C)N1C(=O)c1cccc(NS(=O)(=O)c2ccc(C)c(F)c2)c1` [Compound C13, N-(3-((2R,5S)-2-ethyl-5-methylpyrrolidine-1-carbonyl)phenyl)-3-fluoro-4-methylbenzenesulfonamide]: in experiment [1], the “rescue of β-cells from palmitate-induced apoptosis (cleaved caspase 3; SubG1 population)” value is on record as “exceptionally high efficacy”. In addition, in experiment [2] (donor 1, 5, 2.5 and 0.5 μM), the “efficacy at all tested concentrations” value was “remarkable efficacy” and the “inhibition of palmitate-induced apoptosis in human islets, compared with L-798106” value is on record as “to a greater extent than L-798106”. Besides, in experiment [2] (palmitic acid, 48 h), the “inhibiting or reversing palmitate-induced apoptosis in pancreatic islets of both human donors” value is “particularly high efficacy” and the “rescuing human islet cells from apoptosis, compared with L-798106” value is on record as “to a greater extent than the EP3 antagonist L-798106”. For the same molecule, the “palmitate-induced apoptosis (caspase 3/7 activity)” value in experiment [3] is “significantly reduced”.
